Assay results as given in US10561761B2, “Polymer metal-organic framework composites” (Northwestern University, priority 2014, dated 2020).
Like-named read-outs stand apart in the source and are kept apart here.

Legend:
HDF cells [1] = assay: Apoptosis assay (Annexin V/PI flow cytometry), HDF; settings: Cu 0.5 mmol/L, 24 h
Experimental: (§2) HEKa and HDF cells seeded in 12-well plates (4×10^4 cells/well) were incubated with PPCN, CuSO4, PCuSO4, CMOF or PCMOF (Cu: 0.5 mmol/L) for 24 h. Cells were harvested, washed twice with ice-cold PBS, stained with Alexa Fluor 488 conjugated Annexin V and PI for 15 min at room temperature in dark, and then analyzed by flow cytometry.

HEKa cells [2] = assay: MTT cytotoxicity assay, HEKa; settings: 48 h
Experimental: (§3) HEKa and HDF cells seeded in 96-well plates (5×10^3 cells/well) were incubated with a series of concentrations of PPCN, CuSO4, PCuSO4, CMOF or PCMOF for 48 h. Then, MTT solution was added to each well to a concentration of 0.5 mg/mL and incubated for an additional 4 h. After that, the medium was removed and 100 μL of dimethyl sulfoxide was added to dissolve crystals formed by living cells. Absorbance at 570 nm was measured using a microplate reader. Cell viability was expressed as a percentage of the absorbance to that of the control experiment without treatment.

HDF cells [3] = assay: MTT cytotoxicity assay, HDF; settings: 48 h
Experimental: as §3

[4] = ABTS free radical scavenging assay; format: biochemical; settings: within 48 hrs, 37° C.
Experimental: The ability of PCMOF to scavenge the free radical cation, 2,2′-azino-bis(3-ethylbenzthiazoline-6-sulfonic acid) (ABTS) was assessed. […] A stock solution of 7 mM ABTS and 2.45 mM sodium persulfate in MQ water was prepared and left overnight in the dark at room temperature, after which the solution was sequentially filtered with 0.45 μm filter. […] At each time point, ABTS solution was sampled, diluted with MQ water 1:8 and the absorbance measured at 734 nm. All measurements were performed in triplicate. The antiradical activity was measured as % inhibition of free radicals by measuring the decrease in absorbance compared to PBS solutions at different time points.

HDF cells [5] = assay: Scratch assay (cell migration), HDF; format: cell-based, human; settings: 54 hrs, Cu 1×10^−3 mmol/L
Experimental: (§1) HEKa and HDF cells were seeded in 24-well plates (2×10^4 cells/well) and allowed to form a confluent monolayer. After starvation with FBS-free medium for 24 h, the cell monolayer was scratched in a straightline using 200 μL pipette tip to mimic an incisional wound. […] At desired time intervals, cells were photographed and cell migration rate was calculated using the formula shown as below: […]

HEKa cells [6] = assay: Apoptosis assay (Annexin V/PI flow cytometry), HEKa; settings: Cu 0.5 mmol/L, 24 h
Experimental: as §2

HEKa cells [7] = assay: Scratch assay (cell migration), HEKa; format: cell-based, human; settings: Cu 1×10^−3 mmol/L
Experimental: as §1

HEKa cells [8] = system: HEKa cells
Experimental: as §3

HDF cells [9] = system: HDF cells
Experimental: as §3

Row | Molecule | cell apoptosis (HDF cells [1]) [%] | cytotoxicity (MTT) (HEKa cells [2]) | cytotoxicity (MTT) (HDF cells [3]) | ABTS radicals scavenged [4] | wound closure rate (HDF cells [5]) [%] | cell apoptosis (HEKa cells [6]) [%] | effect on wound closure versus blank (HEKa cells [7]; 8 h) | wound closure rate (HEKa cells [7]; 30 hrs) [%] | cytotoxicity (MTT) (HEKa cells [8]) | cytotoxicity (MTT) (HDF cells [9])
1 | O=S(=O)([O-])[O-].[Cu+2] [CuSO4, Copper sulfate] | 97.84 | increased with increasing concentrations | increased with increasing concentrations | didn't present a free radical scavenging effect | 34.15 | 78.79 | significant increase | 56.73 | – | –
2 | poly(polyethyleneglycol citrate-co-N-isopropylacrylamide) [PPCN] | – | – | – | – | – | – | – | – | not toxic | not toxic
